Measured values reported in US20260294874A1, “COMPOSITIONS COMPRISING MODULATORS OF RIBONUCLEOPROTEIN GRANULE FORMATION AND DISSOLUTION AND METHODS OF USE THEREOF” (University of Virginia Patent Foundation, priority 2023, published 2026).
“Also recorded” adds a separate entry of the source.

Experiments:
Assay type in all cases: cell-based
EDC3 Y475 = molecular target: T1, EDC3 Y475 (Homo sapiens, UniProt Q96F86); assay: Competitive ABPP SILAC LC-MS/MS chemical proteomics, EDC3 Y475; conditions: glucose-deprived HEK293T cells, 25 μM, 2 h
T1 sequence (Q96F86 1-508): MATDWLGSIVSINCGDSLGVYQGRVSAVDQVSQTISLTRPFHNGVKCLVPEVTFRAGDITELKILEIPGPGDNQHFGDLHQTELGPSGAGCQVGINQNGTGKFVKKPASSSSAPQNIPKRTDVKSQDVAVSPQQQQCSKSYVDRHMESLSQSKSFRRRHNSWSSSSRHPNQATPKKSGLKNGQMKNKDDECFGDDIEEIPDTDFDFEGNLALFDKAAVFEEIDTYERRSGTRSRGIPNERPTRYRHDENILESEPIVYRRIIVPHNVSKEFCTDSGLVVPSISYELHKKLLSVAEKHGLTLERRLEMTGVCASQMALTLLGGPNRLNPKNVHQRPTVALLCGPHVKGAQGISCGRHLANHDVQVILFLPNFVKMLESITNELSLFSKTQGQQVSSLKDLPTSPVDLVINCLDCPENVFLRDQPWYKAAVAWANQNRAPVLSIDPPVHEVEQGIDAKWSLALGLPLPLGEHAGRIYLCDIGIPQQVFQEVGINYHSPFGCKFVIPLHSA
Description: (§1) Preparation of SILAC proteomes for LC-MS/MS analysis. SILAC cell proteomes were fractionated to collect the supernatant and normalized to 2.3 mg/mL in PBS. ‘Heavy’ and ‘light’ proteomes were aliquoted (427 μL) and probe-modified proteins were conjugated to desthiobiotin-PEG-3-azide using copper-catalyze azide-alkyne cycloaddition, trypsinized into peptides using Trypsin/Lys-C Mix (Catalog No. V5071; Promega Corporation, Madison, Wisconsin, United States of America), enriched using PIERCE™ Avidin Agarose brand beads (Catalog No. 20219; Thermo Fisher Scientific Inc., Waltham, Massachusetts. United States of America), and prepared for nano-electrospray ionization-LC-MS/MS analysis as previously described in Hahm et al., 2020.
(§2) Data Analysis—Chemical Proteomics. Identification and analysis of peptides and proteins using LC-MS was accomplished using bioinformatics software and quality control parameter protocols as previously described in Hahm et al., 2020.
We performed quantitative liquid-chromatography tandem mass spectrometry (LC-MS/MS) chemical proteomic studies to identify the target protein and binding site(s) of SuTEx fragments with RNP granule modulating activity. […] SILAC light and heavy cells (HEK293T and HeLa) were treated with experimental conditions used for phenotypic screening including the SuTEx ligand pretreatment (25 μM, 2 h) followed by PB (glucose-deprivation, 15 min) and SG induction (75 μM [COMPOUND LEFT OUT], 30 min). Afterwards, cells were lysed, soluble proteomes treated with HHS-465 SuTEx probe (100 μM, 1 h), a global Tyr/Lys-reactive probe used previously for RNP granule investigations (Ciancone et al., 2022), and samples processed to probe-modified peptides for LC-MS/MS analysis as previously reported (Huang et al., 2021), shown in FIG. 10.
(§3) We detected ~8,700 probe-modified sites (Tyr and Lys) in our aggregate HeLa and HEK293T chemical proteomic analyses. […]

[1] = tested on: Tyr and Lys sites of HeLa and HEK293T proteomes; assay: Proteome-wide competitive ABPP SILAC LC-MS/MS chemical proteomics of liganded Tyr/Lys sites; conditions: glucose-deprived HEK293T cells, 25 μM, 2 h
Description: as §1, §2
(§4) We performed quantitative liquid-chromatography tandem mass spectrometry (LC-MS/MS) chemical proteomic studies to identify the target protein and binding site(s) of SuTEx fragments with RNP granule modulating activity. […]
as §3

HNRPK Y72 = molecular target: T2, HNRPK Y72 (Homo sapiens, UniProt P61978); assay: Competitive ABPP SILAC LC-MS/MS chemical proteomics, HNRPK Y72
T2 construct: liganded site Y72
Description: as §1, §2, §4, §3

[2] = tested on: G3BP1 Y40E-rescued G3BP KO cells; assay: SG formation in G3BP KO U20S cells rescued with G3BP1 Y40E; conditions: 25 μM, 2 h
Description: G3BP KO and rescue studies. U20S G3BP1/2 double knockout (G3BP KO) cell-line was a kind gift from the C. Brangwynne lab (Princeton University, Princeton, New Jersey, United States of America) and generated as previously described in Kedersha et al., 2016. G3BP KO cells were seeded at 9.0×10^4 in a 24-well plate with 12-mm glass coverslips. Next day, the cells were transfected with […] vectors with 1 μg/mL tetracycline and LIPOFECTAMINE™ 3000 brand transfection reagent according to the manufacturer's protocol (Thermo Fisher Scientific). 20 hours post-transfection, the cells were treated with 25 μM SuTEx probes for 2 hours in DMEM medium without FBS. The cells were then treated with 75 μM NaAsO2 for 30 minutes and fixed with 3% paraformaldehyde in PBS for 15 minutes at RT and washed with PBS twice. The same protocols for IF of HeLa cells and quantification of G3BP1-positive SGs described above were followed thereafter.
To determine whether the cell biological effects mediated by HHS-166 were Y40-dependent, we expressed recombinant G3BP1 WT or Y40 mutant in previously established G3BP1/2 double knockout U20S (G3BP KO) cells (Kedersha et al., 2016; Sanders et al., 2020) and evaluated the resulting effects on SG response to [COMPOUND LEFT OUT]. […]

Compound	liganding of EDC3 Y475 (in words) (EDC3 Y475)	SILAC ratio (SR), EDC3 Y475 (EDC3 Y475; HHS-465 100 μM, DMSO (light)/ligand (heavy))	number of reproducibly liganded sites in addition to EDC3 Y475 [1]	liganding of HNRPK Y72 (in words) (HNRPK Y72)	effect on SG formation (in words) [2]
COc1ccc(S(=O)(=O)n2cc(CS(C)(=O)=O)nn2)cc1 [AHL-030, 1-((4-Methoxyphenyl)sulfonyl)-4-((methylsulfonyl)methyl)-1H-1,2,3-triazole]	localized AHL-030 site of binding to Y475; also recorded: liganded site (Y475)	> 2	7		
COc1ccc(S(=O)(=O)n2cc(C3CCCCC3)nn2)cc1 [HHS-166, 4-Cyclohexyl-1-((4-methoxyphenyl)sulfonyl)-111-1,2,3-triazole]				not	insensitive to HHS-166 treatment and lost and not Y40E-
